From ChEMBL document CHEMBL4049381 (Medchemcomm, 2016)

How the values were obtained:
[1] = target: T1, Solute carrier organic anion transporter family member 2B1 (Homo sapiens, UniProt O94956); experiment: Drug uptake assessed as human OATP2B1 expressed in Xenopus laevis oocyte mediated drug accumulation per 30 mins per oocyte at 0.003 uM by LC-MS/MS method; assay type: ADME; conditions: 0.5 h
T1 sequence (O94956 whole entry): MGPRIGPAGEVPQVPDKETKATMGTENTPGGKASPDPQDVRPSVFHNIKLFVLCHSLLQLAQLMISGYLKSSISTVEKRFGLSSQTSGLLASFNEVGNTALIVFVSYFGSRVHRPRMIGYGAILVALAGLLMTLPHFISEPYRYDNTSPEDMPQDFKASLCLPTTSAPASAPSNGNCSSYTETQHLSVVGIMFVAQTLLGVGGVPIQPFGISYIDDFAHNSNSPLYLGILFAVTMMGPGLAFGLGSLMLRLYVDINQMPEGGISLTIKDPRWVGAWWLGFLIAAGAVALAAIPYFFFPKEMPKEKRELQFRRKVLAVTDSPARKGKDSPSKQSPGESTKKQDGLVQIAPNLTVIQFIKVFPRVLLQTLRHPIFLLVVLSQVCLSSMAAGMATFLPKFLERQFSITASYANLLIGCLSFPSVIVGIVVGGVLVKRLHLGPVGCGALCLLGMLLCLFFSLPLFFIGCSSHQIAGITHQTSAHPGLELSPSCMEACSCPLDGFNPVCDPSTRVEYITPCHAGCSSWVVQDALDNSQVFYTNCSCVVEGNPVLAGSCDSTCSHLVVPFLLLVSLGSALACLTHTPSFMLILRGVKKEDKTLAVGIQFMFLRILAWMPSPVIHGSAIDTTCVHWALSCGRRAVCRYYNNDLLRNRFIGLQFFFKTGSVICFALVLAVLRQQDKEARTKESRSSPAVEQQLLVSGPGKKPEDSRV

[2] = target: T2, Solute carrier organic anion transporter family member 2B1 (Homo sapiens, UniProt O94956, H618Q); experiment: Drug uptake assessed as human OATP2B1 H618Q mutant expressed in Xenopus laevis oocyte mediated drug accumulation at 0.003 uM after 30 mins by LC-MS/MS method relative to wild type protein; assay type: ADME; conditions: 0.5 h
[3] = target: T3, Solute carrier organic anion transporter family member 2B1 (Homo sapiens, UniProt O94956, R607A); experiment: Drug uptake assessed as human OATP2B1 R607A mutant expressed in Xenopus laevis oocyte mediated drug accumulation at 0.003 uM after 30 mins by LC-MS/MS method relative to wild type protein; assay type: ADME; conditions: 0.5 h
[4] = target: T4, Solute carrier organic anion transporter family member 2B1 (Homo sapiens, UniProt O94956, H579Q); experiment: Drug uptake assessed as human OATP2B1 H579Q mutant expressed in Xenopus laevis oocyte mediated drug accumulation at 0.003 uM after 30 mins by LC-MS/MS method relative to wild type protein; assay type: ADME; conditions: 0.5 h
[5] = target: T1, Solute carrier organic anion transporter family member 2B1; experiment: Drug uptake assessed as human OATP2B1 expressed in Xenopus laevis oocyte mediated drug accumulation per 120 mins per oocyte at 1 uM by LC-MS/MS method; assay type: ADME; conditions: 2 h
[6] = target: T2, Solute carrier organic anion transporter family member 2B1; experiment: Drug uptake assessed as human OATP2B1 H618Q mutant expressed in Xenopus laevis oocytes mediated drug accumulation at 1 uM after 120 mins by LC-MS/MS method relative to wild type protein; assay type: ADME, cell-based; conditions: 2 h
[7] = target: T3, Solute carrier organic anion transporter family member 2B1; experiment: Drug uptake assessed as human OATP2B1 R607A mutant expressed in Xenopus laevis oocyte mediated drug accumulation at 1 uM after 120 mins by LC-MS/MS method relative to wild type protein; assay type: ADME; conditions: 2 h
[8] = target: T4, Solute carrier organic anion transporter family member 2B1; experiment: Drug uptake assessed as human OATP2B1 H579Q mutant expressed in Xenopus laevis oocyte mediated drug accumulation at 1 uM after 120 mins by LC-MS/MS method relative to wild type protein; assay type: ADME; conditions: 2 h
[9] = target: T4, Solute carrier organic anion transporter family member 2B1; experiment: Drug uptake assessed as human OATP2B1 H579Q mutant expressed in Xenopus laevis oocyte mediated drug accumulation at 1 uM after 180 mins by LC-MS/MS method relative to wild type protein; assay type: ADME; conditions: 3 h
[10] = target: T1, Solute carrier organic anion transporter family member 2B1; experiment: Drug uptake assessed as human OATP2B1 expressed in Xenopus laevis oocyte mediated drug accumulation per 180 mins per oocyte at 1 uM by LC-MS/MS method; assay type: ADME; conditions: 3 h
[11] = target: T3, Solute carrier organic anion transporter family member 2B1; experiment: Drug uptake assessed as human OATP2B1 R607A mutant expressed in Xenopus laevis oocyte mediated drug accumulation at 1 uM after 180 mins by LC-MS/MS method relative to wild type protein; assay type: ADME; conditions: 3 h
[12] = target: T2, Solute carrier organic anion transporter family member 2B1; experiment: Drug uptake assessed as human OATP2B1 H618Q mutant expressed in Xenopus laevis oocyte mediated drug accumulation at 1 uM after 180 mins by LC-MS/MS method relative to wild type protein; assay type: ADME; conditions: 3 h
[13] = test system: C[C@]12CC[C@@H]3c4ccc(OS(=O)(=O)O)cc4CC[C@H]3[C@@H]1CCC2=O; experiment: Substrate activity at human OATP2B1 H579Q mutant high affinity site expressed in Xenopus laevis oocytes assessed as Km for transporter-mediated drug accumulation after 15 mins by Eadie-Hofstee plot method; assay type: ADME, cell-based
[14] = test system: C[C@]12CC[C@@H]3c4ccc(OS(=O)(=O)O)cc4CC[C@H]3[C@@H]1CCC2=O; experiment: Substrate activity at human OATP2B1 H618Q mutant high affinity site expressed in Xenopus laevis oocytes assessed as Km for transporter-mediated drug accumulation after 15 mins by Eadie-Hofstee plot method; assay type: ADME, cell-based
[15] = test system: C[C@]12CC[C@@H]3c4ccc(OS(=O)(=O)O)cc4CC[C@H]3[C@@H]1CCC2=O; experiment: Substrate activity at human OATP2B1 H618Q mutant low affinity site expressed in Xenopus laevis oocytes assessed as Km for transporter-mediated drug accumulation after 15 mins by Eadie-Hofstee plot method; assay type: ADME, cell-based
[16] = substrate: C[C@]12CC[C@@H]3c4ccc(OS(=O)(=O)O)cc4CC[C@H]3[C@@H]1CCC2=O; experiment: Substrate activity at human OATP2B1 low affinity site expressed in Xenopus laevis oocytes assessed as Km for transporter-mediated drug accumulation after 15 mins by Eadie-Hofstee plot method; assay type: ADME, cell-based
[17] = substrate: CC[C@H](C)C(=O)O[C@H]1C[C@H](O)C=C2C=C[C@H](C)[C@H](CC[C@@H](O)C[C@@H](O)CC(=O)O)[C@H]21; experiment: (§1) Drug uptake assessed as OATP2B1 high affinity site (unknown origin)-mediated drug uptake; assay type: ADME, Homo sapiens
[18] = substrate: O=C(O)c1cc(/N=N/c2ccc(S(=O)(=O)Nc3ccccn3)cc2)ccc1O; experiment: as §1; assay type: ADME, Homo sapiens
[19] = substrate: C[C@]12CC[C@@H]3c4ccc(OS(=O)(=O)O)cc4CC[C@H]3[C@@H]1CCC2=O; experiment: as §1; assay type: ADME, Homo sapiens
[20] = substrate: C[C@]12CC[C@@H]3c4ccc(OS(=O)(=O)O)cc4CC[C@H]3[C@@H]1CCC2=O; experiment: Substrate activity at human OATP2B1 high affinity site expressed in Xenopus laevis oocytes assessed as Km for transporter-mediated drug accumulation after 15 mins by Eadie-Hofstee plot method; assay type: ADME, cell-based
[21] = substrate: CC[C@H](C)C(=O)O[C@H]1C[C@H](O)C=C2C=C[C@H](C)[C@H](CC[C@@H](O)C[C@@H](O)CC(=O)O)[C@H]21; experiment: (§2) Drug uptake assessed as OATP2B1 low affinity site (unknown origin)-mediated drug uptake; assay type: ADME, Homo sapiens
[22] = substrate: C[C@]12CC[C@@H]3c4ccc(OS(=O)(=O)O)cc4CC[C@H]3[C@@H]1CCC2=O; experiment: as §2; assay type: ADME, Homo sapiens

T4 sequence (O94956 whole entry T392I/H579Q): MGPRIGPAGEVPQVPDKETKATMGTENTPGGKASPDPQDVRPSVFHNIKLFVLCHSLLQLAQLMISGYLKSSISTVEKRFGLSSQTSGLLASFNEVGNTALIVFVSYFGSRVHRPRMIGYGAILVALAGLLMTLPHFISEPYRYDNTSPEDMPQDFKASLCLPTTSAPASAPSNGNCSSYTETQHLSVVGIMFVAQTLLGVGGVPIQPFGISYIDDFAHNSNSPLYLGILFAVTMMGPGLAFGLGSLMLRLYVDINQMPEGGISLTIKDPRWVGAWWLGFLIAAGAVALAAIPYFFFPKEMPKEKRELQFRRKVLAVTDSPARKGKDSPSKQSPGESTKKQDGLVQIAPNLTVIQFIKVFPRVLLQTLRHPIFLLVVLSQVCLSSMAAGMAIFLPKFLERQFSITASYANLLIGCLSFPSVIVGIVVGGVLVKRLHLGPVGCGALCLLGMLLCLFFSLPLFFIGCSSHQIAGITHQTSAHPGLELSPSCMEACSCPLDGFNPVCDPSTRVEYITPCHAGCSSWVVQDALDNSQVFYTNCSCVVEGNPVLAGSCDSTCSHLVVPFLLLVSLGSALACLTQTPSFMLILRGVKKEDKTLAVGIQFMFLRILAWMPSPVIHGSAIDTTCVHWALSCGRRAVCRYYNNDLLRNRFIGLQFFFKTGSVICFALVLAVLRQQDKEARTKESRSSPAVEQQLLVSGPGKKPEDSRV
T3 sequence (O94956 whole entry T392I/R607A): as the sequence (O94956 whole entry T392I/H579Q) above, with Q579H, R607A counted along it
T2 sequence (O94956 whole entry T392I/H618Q): as the sequence (O94956 whole entry T392I/H579Q) above, with Q579H, H618Q counted along it

With `CCCCC[C@H](O)/C=C/[C@H]1[C@H](O)CC(=O)[C@@H]1C/C=C\CCCC(=O)O` [DINOPROSTONE] as the molecule, how does the Drug uptake [1] read?
Its Drug uptake is 0.461 µL.

And the Drug uptake [2]?
The Drug uptake was 97.4%.

And the Drug uptake [3]?
The Drug uptake was 45.3%.

And the Drug uptake [4]?
The Drug uptake was 138%.

What does the source list for `CC(C)(C(=O)O)c1ccc(C(O)CCCN2CCC(C(O)(c3ccccc3)c3ccccc3)CC2)cc1` (stereo not given) [FEXOFENADINE]?
Drug uptake [5]: 0.056 µL; Drug uptake [6]: 121%; Drug uptake [7]: 28.5%; Drug uptake [8]: 147%

Which Drug uptake [9] does the source give for `CC[C@H](C)C(=O)O[C@H]1C[C@H](O)C=C2C=C[C@H](C)[C@H](CC[C@@H](O)C[C@@H](O)CC(=O)O)[C@H]21` [PRAVASTATIN] here?
The Drug uptake was 32.5%.

What about the Drug uptake [10] of the same molecule?
Its Drug uptake is 0.196 µL.

And the Drug uptake [11]?
Its Drug uptake is 0.2%.

What about the Drug uptake [12] of the same molecule?
Its Drug uptake is 40%.

Which results are given for `CC(C)c1nc(N(C)S(C)(=O)=O)nc(-c2ccc(F)cc2)c1/C=C/[C@@H](O)C[C@@H](O)CC(=O)O` [ROSUVASTATIN]?
Drug uptake [5]: 2.951 µL; Drug uptake [6]: 33.1%; Drug uptake [7]: 5.79%; Drug uptake [8]: 39.8%

With `O=C(O)c1cc(/N=N/c2ccc(S(=O)(=O)Nc3ccccn3)cc2)ccc1O` [SULFASALAZINE] as the molecule, how does the Drug uptake [5] read?
Its Drug uptake is 1.934 µL.

What about the Drug uptake [6] of the same molecule?
The Drug uptake was 22.2%.

What about the Drug uptake [7] of the same molecule?
The Drug uptake was 7.57%.

And the Drug uptake [8]?
The Drug uptake was 41%.

Which Km [13] does the source give for “Solute carrier organic anion transporter family member 2B1 (Homo sapiens; H579Q)” here?
The Km was 0.18 µM.

For “Solute carrier organic anion transporter family member 2B1 (Homo sapiens; H618Q)”, which Km [14] is on record?
The Km was 0.149 µM.

And the Km [15]?
The Km was 91.1 µM.

B1: Solute carrier organic anion transporter family member 2B1 (Homo sapiens) (protein)
chain: T1 sequence (O94956 whole entry)
With B1 as the molecule, how does the Km [16] read?
Its Km is 51.4 µM.

And the Km [17]?
Its Km is 6.25 µM.

And the Km [18]?
Its Km is 1.73 µM.

And the Km [19]?
The Km was 0.1 µM.

And the Km [20]?
The Km was 0.463 µM.

And the Km [21]?
Its Km is 225 µM.

And the Km [22]?
Its Km is 29.9 µM.
